US20120108532A1, “PHARMACEUTICAL COMPOSITION FOR NEUROPROTECTIVE TREATMENT IN PATIENTS WITH ICTUS COMPRISING CITICOLINE AND URIC ACID” (HOSPITAL CLINIC PROVINCIAL DE BARCELONA, priority 2009, published 2012)

Assays:
[1] = test system: mixed cultures of neurons/glia; assay: Lactate dehydrogenase (LDH) release assay of cell death after oxygen and glucose deprivation (OGD); format: cell-based, rat; conditions: 100 μM, added 60 min before, during and after 90 min OGD; read 3 hours 30 minutes after OGD; FIG. 1
Protocol: Mixed cultures of neurons/glia of 18-day rat fetal embryos Sprague-Dawley were prepared as described in Petegnief, V. Saura, J. De Gregorio-Rocasolano, N., and Paul, S. M. (2001) Neuroscience 104, 223-234. The cells were suspended in minimum essential medium (MEM) supplemented by 10% fetal bovine serum and 100 μg/ml gentamicin and placed on 24-well plates previously covered with poly-L-lysine (5 μg/ml) (Nunc, Roskilde, Denmark) with a density of 0.6×10^6 cells/well and cultured at 37° C. in an incubator with 95% atmospheric air/5% CO2. The in vitro medium was partially changed on days 4, 7 and 10 (DIV) with MEM supplemented with B27. The cultures were used in 11/13 DIV. 11.9 mM uric acid was prepared in 1.35 mM lithium carbonate and 5% mannitol. […]
For the lactate dehydrogenase activity assay, cell death was estimated 3 hours 30 minutes after OGD and next lactate dehydrogenase (LDH) activity was measured released in the medium according to a modification of the method of (Wroblewski and LaDue, […]). The reduction of absorbance in 0.75 NADH to 340 nm was followed by a phosphate buffer ([…], pH 7.4) in presence of 4.2 mM pyruvic acid as substrate.

focal cerebral ischemia = conditions: adult rat; UA given 2 hours before occlusion of the middle cerebral artery or 1 hour after reperfusion; cited from earlier work

In the case of `O=c1[nH]c(=O)c2[nH]c(=O)[nH]c2[nH]1` [uric acid], the “cell viability in ischemic conditions (LDH activity released in the medium)” value [1] is given as “did not improve the cell viability” and the resulting cerebral infarction (focal cerebral ischemia) is given as “significantly reduces the resulting cerebral infarction”.
